Laboratory results reported in patent US9957214B2, “Multifunctional radical quenchers” (ARIZONA BOARD OF REGENTS ON BEHALF OF ARIZONA STATE …, priority 2012, dated 2018).

Tests used:
CEM leukemia cells = test: Suppression of ROS production (DCFH-DA flow cytometry) in DEM-treated CEM leukemia cells; format: cell-based; conditions: 5 μM; CEM leukemia cells pretreated with DEM
Experimental: FIG. 1. Flow cytometric analysis of CEM leukemia lymphocytes (gray bars) and FRDA lymphocytes (black bars) stained with dichlorodihydrofluorescein diacetate (DCFH-DA) for 20 min, following pretreatment with the test compounds at 5 μM concentration for 16 h, and subsequent treatment with diethyl maleate (DEM) for 60 or 80 min to induce the production of ROS in CEM and FRDA lymphocytes, respectively. Data shown represent the mean±SEM of two different experiments run as duplicates.
Intracellular ROS production was measured in FRDA lymphocyte cells (GM15850, Coriell Cell Repositories, Camden, N.J.) using the oxidant sensitive fluorescent probe 2,7-dichlorodihydrofluorescein diacetate (DCFH-DA) (Molecular Probes) as described previously (Khdour et al. (2011) Pharm. Res. 28, 2896-2909). One mL of FRDA lymphocyte cells or leukemic CEM cells (5×10^5 cells) were plated in a 24-well plate, treated with the test compounds and incubated at 37° C. for 16 h in a humidified atmosphere containing 5% CO2 in air. Cells were treated with 5 mM diethyl maleate (DEM) for 80 min or 60 min respectively, collected by centrifugation at 300×g for 3 min and then washed with phosphate buffered saline (PBS) (Life Technologies). Cells were resuspended in PBS containing 20 mM glucose and incubated at 37° C. in the dark for […] with 10 μM DCFH-DA. Cells were collected by centrifugation at 300×g for 3 min and then washed with PBS. The samples were analyzed immediately by flow cytometry (C6 Accuri, BD Biosciences, San Jose, Calif.), using a 488 nm excitation laser and the FL1-H channel 530±15 nm emission filter. The generation of ROS, mainly peroxides, was detected as a result of the oxidation of DCFH. In each analysis, 10,000 events were recorded after cell debris was electronically gated out. Results obtained were verified by running duplicates and repeating experiments in three independent runs. Results were expressed as percentage of ROS scavenging activity.
The ability of the synthesized analogues to quench ROS and lipid peroxidation was evaluated in FRDA lymphocytes or leukemic CEM cells. These cells were placed under oxidative stress by depleting them of glutathione (GSH) using diethyl maleate (DEM). Depletion of glutathione by treatment FRDA lymphocytes or leukemic CEM cells with DEM has been used to induce oxidative stress in cellular systems by generation of ROS. Intracellular ROS production was measured using the oxidant sensitive fluorescent probe 2,7-dichlorodihydrofluorescein diacetate (DCFH-DA) (Molecular Probes).

FRDA lymphocytes = test: Suppression of lipid peroxidation (C11-BODIPY581/591, FACS) in FRDA lymphocytes treated with diethyl maleate; format: cell-based; conditions: DEM
Source text: Several methods for assaying lipid peroxidation in vitro have been developed (Kuypers et al. (1987) Biochim Biophys Acta. 25, 266-274; Pap et al. (1999) FEBS Lett. 453, 278-282; Drummen et al. (2002) Free RadicBiol Med. 33, 473-490). Almost all of these methods are based on inhibition of free radical-induced oxidation reactions. A widely used fluorescence assay for lipid peroxidation uses lipid soluble cis-parinaric acid as a probe. cis-parinaric acid loses its fluorescence (λexc/em: 320/432 nm) upon interaction with peroxyl radicals and retains its fluorescence in the presence of radical quenchers. cis-parinaric acid is, however, air sensitive, photolabile and absorbs light in the UV region of the spectrum (at ˜320 nm). […] In practical terms, the results obtained using cis-parinaric as a probe for lipid peroxidation are confounded due to the overlapping of the compounds emission spectra with the cis-parinaric emission spectrum. C11-BODIPY^581/591 Oxidation to Measure Lipid Peroxidation To overcome the problem of spectral overlap using cis-parinaric acid, a fluorescence assay for lipid peroxidation using a lipophilic probe belonging to the BODIPY class of fluorescent dyes was used C11-BODIPY^581/591 (4,4-difluoro-5(4-phenyl-1,3-butadienyl)-4-bora-3a, 4a-diaza-s-indacene-3-propionic acid) fluorescent shifts from red to green upon oxidation. C11-BODIPY^581/591 (Molecular Probes, Eugene, Oreg., USA) stock solution concentrations were determined by measuring the absorption of C11-BODIPY^581/591 at 582 nm using a molar extinction coefficient of 140,000 mol^−1 cm^−1 (R. P. Haugland, (1999) Handbook of Fluorescent Probes and Research Chemicals, Molecular Probes, Inc., Eugene, Oreg.). The lipid peroxidation inducer 2,2′-Azobis (2-amidino-propane dihydrochloride) (AAPH) and the antioxidant compound α-tocopherol (α-TOH) were obtained from Sigma (St. Louis, Mo., USA). Phospholipid bilayers were prepared from 1-stearoyl-2-oleoyl-phosphatidylcholine (SOPC) and 1,2-dilinoleoyl-phosphatidylcholine (DLPC) and were purchased from Avanti® polar lipids, Inc., (Alabaster, Ala., USA). Preparation of Liposomes Phosphotidylcholine (PC) liposomes were prepared as described before (Guey-Shuang et al. (1982) Lipids. 17, 403-413). Briefly, DLPC (25 mg) were dissolved in chloroform and the solvent was removed by nitrogen evaporation (˜2 hours) to give a thin film of PC in a round bottom flask. The lipid film was hydrated with 50 mL of 10 mM Tris-HCl (pH 7.4), 100 mM KCl, shaken and sonicated for 15 seconds. The liposomes obtained were filtered several times through […] membrane filter. Measurement of C11-BODIPY^581/591 Oxidation C11-BODIPY^581/591 was incorporated into liposomes and oxidized by peroxyl radicals derived from the decomposition of AAPH in the presence and absence of compounds. Liposomes (1 mg/mL), suspended in 10 mM Tris-HCl (pH 7.4), 100 mM KCl, were transferred to a quartz 1 mL cuvette and placed in a Varian Cary Eclipse fluorometer (Varian, Cary, N.C.) equipped with a thermostatted cuvette holder at 40° C. Liposomes were pre-incubated for 10 min with 200 nM C11-BODIPY^581/591 to allow their incorporation into the lipid phase of the liposomes. After the addition of AAPH (10 mM) the decay of the red fluorescence was followed at λ exc=570 nm, λ em=600 nm. Relative fluorescence units were normalized to 100% intensity. Results obtained were verified by repeating experiments N=3 independent experiments. Measurement of C11-BODIPY^581/591 Oxidation in Cell Culture A quantitative FACS analysis of lipid peroxidation of FRDA lymphocytes, which had been treated with diethyl maleate following incubation in the presence and absence of the test compounds, was measured as described (Khdour et al. (2011) Pharmaceut. Res. 28, 2896-2909). Briefly, FRDA lymphocytes (5×10^5 cell/mL) were treated with the test compounds at final concentrations of 5 and 10 μM and incubated at 37° C. for 16 h in a humidified atmosphere containing 5% CO2 in air. […]

[1] = system: Friedreich's ataxia lymphoblast cell line GM15850; test: Cytoprotection (trypan blue exclusion assay) of DEM-treated FRDA lymphocytes; format: cell-based; conditions: DEM alone 18 ± 10% viability
Experimental: Cell viability was determined by trypan blue exclusion assay in Friedreich's ataxia lymphoblast cell line GM15850 (Coriell Institute, New Jersey). This technique was used to assess the cytoprotective effects of the tested compounds in cultured cells treated with DEM to induce cell death by GSH depletion. The viability of DEM-treated FRDA cells was determined by their ability to exclude the dye trypan blue. Viable cells exclude trypan blue, whereas non-viable cells take up the dye and stain blue. Briefly, FRDA lymphocytes were grown in RPMI 1640 medium (Gibco) supplemented with 15% fetal calf serum, 2 mM glutamine (HyClone) and 1% penicillin-streptomycin mix (Cellgro). Cells were seeded at a density of 5×10^5 cells/mL and treated with different concentrations of the indicated compounds. Cells were incubated at 37° C. in a humidified atmosphere of 5% CO2 in air for 17 h. After pre-incubation, the cells were treated with 5 mM DEM. Cell viability was determined by staining cells with 0.4% trypan blue using a hemacytometer. At least 500 cells were counted in each experimental group. At the time of assay, <20% of DEM treated cells were viable (trypan blue negative), whereas in non DEM-treated control, >90% cells were viable. Cell viability was expressed as the percentage of control. Data are expressed as means±S.E.M. (n=3).
Cell viability was determined by trypan blue exclusion assay in Friedreich's ataxia lymphoblast cell line GM15850 (Coriell Institute). This technique was used to assess the cytoprotective effects of the compounds in cultured cells treated with diethyl maleate (DEM) to induce cell death by glutathione (GSH) depletion. The viability of DEM-treated FRDA cells was determined by their ability to exclude the dye trypan blue. Viable cells exclude trypan blue, whereas non-viable cells take up the dye and stain blue. […] Benzoquinone analogue 9 afforded greater cyoprotection to FRDA lymphocytes at 5 μM concentration than did the tert-butyl ester 6 (74 vs 50%).

[2] = system: NADH oxidase (complexes I, III and IV); test: NADH oxidase activity (complexes I, III and IV) in submitochondrial particles; format: biochemical, bovine

Compound | Scavenging activity (%), suppression of ROS production (CEM leukemia cells) [%] | Scavenging activity (%), suppression of lipid peroxidation (FRDA lymphocytes; 5 μM) [%] | Scavenging activity (%), suppression of lipid peroxidation (FRDA lymphocytes; 10 μM) | Cytoprotection (cell viability, % of untreated control) ([1]; 1 μM) [%] | Cytoprotection (cell viability, % of untreated control) ([1]; 5 μM) | NADH oxidase activity (Complex I, III, IV) % ([2]; 1 μM) | NADH oxidase activity (Complex I, III, IV) % ([2]; 5 μM) | NADH oxidase activity (Complex I, III, IV) % ([2]; 10 μM) [%]
CCCCCCCCCCCCCC1=C(NCCCC(=O)OC(C)(C)C)C(=O)C(C)=C(NCCCC(=O)OC(C)(C)C)C1=O [Compound 44, 2,5-bis(tert-butyl 4-aminobutanoate)-3-methyl-6-tridecylcyclohexa-2,5-diene-1,4-dione] | 0 | 8 ± 3 | 13 ± 3^ % | 15 ± 2 | 98 ± 6^ % | 95 ± 2^ % | 92 ± 3^ % | 84 ± 3
CCCCCCCCCCCCCC1=C(NCCCC(=O)OCCCC)C(=O)C(C)=C(NCCCC(=O)OCCCC)C1=O [Compound 47, 2,5-bis(butyl 4-aminobutanoate)-3-methyl-6-tridecylcyclohexa-2,5-diene-1,4-dione] | 25 ± 11 | 7 ± 1 | 19 ± 2^ % | 9 ± 2 | 17 ± 3^ % | 77 ± 1^ % | 68 ± 1^ % | 69 ± 2
